Key:
P2RY2 = biological target: T1, P2RY2 (Rattus norvegicus, UniProt P41232); assay: Fluo-4 Ca2+ assay in null FRT cells with P2RY2 antagonist; assay type: cell-based; settings: AR-C118925XX 10 μM; UTP 0.25 μM; FIG. 5B
T1 construct: endogenous in cells; host or cells: null (parental) FRT cells
Protocol: Experiments were performed using the microplate reader described for the HS-YFP assay. FRT and HEK293 cells were cultured until confluence in 96-well microplates (3603, Corning). Cells were washed 2 times with PBS (150 μl/wash) and then loaded for 1 h at 37° C. with 5 μM Fluo-4/AM (Thermo Fisher Scientific; catalog number: F23917) in PBS containing 10 mM glucose, 0.5 mM sulfinpyrazone, and 1% fetal bovine serum. After loading, cells were washed 2 times with PBS-glucose-sulfinpyrazone (150 μl/wash) and incubated for 20 min at 37° C. with 60 μl of PBS plus 10 mM glucose and 0.5 mM sulfinpyrazone containing compounds of interest at 10 μM final concentration or vehicle. Each well was assayed individually. Fluo-4 fluorescence (500 nm excitation, 535 nm emission) was detected every 200 ms for 16-40 s. Two seconds after the start of fluorescence recording, the reader automatically injected 165 μl of a modified PBS containing 136 mM KCl instead of NaCl. This solution also contained 10 mM glucose, 0.5 mM sulfinpyrazone, and UTP or SLIGR-NH2 (CAS #171436-38-7) at a final concentration that depended on the specific cell type. […] The Fluo-4 fluorescence increase was quantified using a procedure compiled in Microsoft Excel after background subtraction and normalization for the initial value measured before UTP addition.

PLC = PLC assay in FRT cells expressing PH-PLC-GFP sensor; assay type: cell-based; settings: pre-incubation with BAPTA/AM; FIG. 3B
Protocol: FRT cells with stable expression of PLC6-PH-GFP, generated in the laboratory of inventors, were cultured up to subconfluent condition in p-Plate96 microplates (Ibidi). Each well of a 96-well microplate was washed 3 times, leaving 125 μl of phosphate-buffered saline (PBS) containing compounds at 10 μM final concentration or vehicle. After 20 min of incubation at 37° C., microplate was moved on the stage of an inverted microscope equipped with GFP excitation/emission filters, 40×oil immersion objective (Olympus, Segrate, Italy), Lambda DG4 illumination system (Sutter Instrument Co., Novato, CA, USA), Prime cmos camera (Photometrics, Tucson, AZ, USA) and MetaMorph imaging acquisition software (Molecular Devices, Sunnyvale, CA, USA). Time-lapse experiments were carried out with 50 ms exposure time, 20 frame/s rate, and 2.4 min total duration. After 20 s and 90 s, UTP 0.25 μM and 100 μM (final concentrations) was respectively added. Analysis was performed with MetaMorph software, by quantifying GFP fluorescence cytoplasmic accumulation in manually selected single cell regions of interest (ROI). After background subtraction, fluorescence recordings were normalized for the initial value.

FRT cells = assay: Fluo-4 Ca2+ mobilization assay in parental (null) FRT cells; assay type: cell-based, rat; settings: for potentiation of the Ca2+ increase elicited by UTP, multiple concentrations: UTP 0.25 μM, compounds 1-80 μM, vs vehicle (DMSO), FIG. 8
Protocol: Experiments were performed using the microplate reader described for the HS-YFP assay. FRT and HEK293 cells were cultured until confluence in 96-well microplates (3603, Corning). Cells were washed 2 times with PBS (150 μl/wash) and then loaded for 1 h at 37° C. with 5 μM Fluo-4/AM (Thermo Fisher Scientific; catalog number: F23917) in PBS containing 10 mM glucose, 0.5 mM sulfinpyrazone, and 1% fetal bovine serum. […] Each well was assayed individually. Fluo-4 fluorescence (500 nm excitation, 535 nm emission) was detected every 200 ms for 16-40 s. Two seconds after the start of fluorescence recording, the reader automatically injected 165 μl of a modified PBS containing 136 mM KCl instead of NaCl. This solution also contained 10 mM glucose, 0.5 mM sulfinpyrazone, and UTP or SLIGR-NH2 (CAS #171436-38-7) at a final concentration that depended on the specific cell type. For UTP we used: 0.25 μM for FRT; 1 μM for HEKR2; 5 μM for HEK3XKO, HEKR1, and HEKR3. For SLIGR-NH2 we used: 10 μM for HEKR1; 4 μM for HEKR2. These concentrations were chosen to elicit ˜20% of maximal effect based on UTP and SLIGR-NH2 dose-response relationships. The lower agonist concentrations used for HEKR2 cells, compared to HEKR1 cells, are consistent with the higher affinity of ITPR2 for IP3 (16). The Fluo-4 fluorescence increase was quantified using a procedure compiled in Microsoft Excel after background subtraction and normalization for the initial value measured before UTP addition.
In a further experimental setting, experiments were performed using as above the FLUOstar Omega (BMG Labtech, Offenburg, Germany) microplate reader equipped with syringe pumps and optical excitation/emission filters optimized for yellow fluorescent protein (YFP) fluorescence (ET500/20× and ET535/30m, respectively; Chroma Technology Corporation). FRT and Chem-1 cells were cultured until confluence in 96-well microplates (cc3603, Corning). Cells were washed 2 times with PBS (150 μl/wash) and then loaded for 1 h at 37° C. with 5 μM Fluo-4/AM (Thermo Fisher Scientific; catalog number: F23917) in PBS containing 10 mM glucose, 0.5 mM sulfinpyrazone, and 1% fetal bovine serum. […] Each well was assayed individually. Fluo-4 fluorescence (500 nm excitation, 535 nm emission) was detected every 200 ms for 16-40 s. Two seconds after the start of fluorescence recording, the reader automatically injected 165 μl of a modified PBS containing 136 mM KCl instead of NaCl. This solution also contained, in addition to 10 mM glucose and 0.5 mM sulfinpyrazone, the following agonists: UTP (U6625, Merck) or CCK8s (23371, Cayman Chemical). The Fluo-4 fluorescence increase was quantified using a procedure compiled in Microsoft Excel after background subtraction and normalization for the initial value measured before UTP or CCK8s addition.

ENaC = assay: Short-circuit current recordings on human cultured bronchial epithelia, ENaC function; assay type: cell-based; settings: apical addition; ARN7149 10 μM, ARN11391 20 μM, ARN4550 20 μM, UTP 10 nM; FIG. 9
Description: In a further experimental setting, snapwell supports (cc3801, Corning) carrying differentiated bronchial epithelia generated in vitro were mounted in a vertical chamber resembling an Ussing system with internal fluid circulation (EM-CSYS-8, Physiologic Instruments, San Diego, CA, USA). The apical and basolateral hemichambers were filled with a solution containing (in mM): 126 NaCl, 0.38 KH2PO4, 2.13 K2HPO4, 1 MgSO4, 1 CaCl2), 24 NaHCO3, and 10 glucose. Both sides were continuously bubbled with a gas mixture containing 5% CO2 and 95% air. The temperature of the solution was kept at 37° C. throughout the experiment.
During recordings, the following molecules (in addition to ARN7149, ARN11391, and ARN4550) were added in the apical solution: elastase (SE2093002, Serva); UTP (U6625, Merck); amiloride (A7410, Merck). Transepithelial voltage was short-circuited with a voltage-clamp (VCC MC8, Physiologic Instruments, San Diego, CA, USA) connected to the apical and basolateral chambers via Ag—AgCl electrodes and agar bridges (2% agar in 1 M KCl). The offset between voltage electrodes and the fluid resistance were cancelled before experiments. The resulting short-circuited current from each channel was recorded on a personal computer with the Acquire & Analize 2.3 software (Physiologic Instruments, San Diego, CA, USA).

TMEM16A = assay: HS-YFP assay in ITPR-defective HEK293 cells transiently transfected with TMEM16A; assay type: cell-based; settings: ionomycin 1 μM, FIG. 2D

T1 sequence (P41232 whole entry): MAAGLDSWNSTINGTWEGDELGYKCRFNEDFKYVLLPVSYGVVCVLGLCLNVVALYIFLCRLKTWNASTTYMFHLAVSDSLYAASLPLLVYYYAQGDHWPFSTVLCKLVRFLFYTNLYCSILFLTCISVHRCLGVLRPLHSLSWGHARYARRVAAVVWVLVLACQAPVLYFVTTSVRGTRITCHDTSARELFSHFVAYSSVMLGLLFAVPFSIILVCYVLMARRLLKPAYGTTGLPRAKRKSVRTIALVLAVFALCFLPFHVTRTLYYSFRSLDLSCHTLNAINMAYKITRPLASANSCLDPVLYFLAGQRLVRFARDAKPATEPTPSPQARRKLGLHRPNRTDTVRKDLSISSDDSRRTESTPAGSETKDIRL

`Cc1ccc2c(c1)C=Cc1cc(C)ccc1C2c1cn(Cc2ccc(C(=O)Nc3nn[nH]n3)o2)c(=O)[nH]c1=S` [AR-C118925XX] was tested, and the “effect of UTP alone and of UTP plus potentiators on Ca2+ mobilization” value (P2RY2) was “completely blocked”.

`CC(=O)OCOC(=O)CN(CC(=O)OCOC(C)=O)c1ccccc1OCCOc1ccccc1N(CC(=O)OCOC(C)=O)CC(=O)OCOC(C)=O` [BAPTA/AM, 1,2-Bis(2-aminophenoxy)ethane-N,N,N′,N′-tetraacetic acid tetrakis(acetoxymethyl ester), reference compound] was tested, and the “PLC activity with/without compounds after Ca2+ chelation” value (PLC) was “markedly inhibited”.

In the case of `COCCN(C(=O)c1cc(OC)c(OC)c(OC)c1)c1nc(-c2ccccc2)cs1` [Eact, reference compound], the “direct Ca2+ mobilization in the absence of UTP (Fluo-4)” value (FRT cells; acute addition, compounds 10 μM, Eact 5 μM, FIG. 2B) is reported as “elicits Ca^2+ influx”.

`O=c1ccn([C@@H]2O[C@H](COP(=O)(O)OP(=O)(O)OP(=O)(O)O)[C@@H](O)[C@H]2O)c(=O)[nH]1` [UTP, reference compound] was tested, and the “ENaC current decay (ENaC inhibition), short-circuit current” value (ENaC) was “ENaC current decay”.

In the case of `O=C(Nc1ccccc1OCC1CCCCO1)C1CCCN(c2ccccn2)C1` (stereo not shown) [compound 6, 1-(2-Pyridyl)-N-[2-(tetrahydropyran-2-ylmethoxy)phenyl]piperidine-3-carboxamide], the “potentiation of the Ca2+ increase elicited by UTP, multiple concentrations” value (FRT cells) is reported as “dose-dependent potentiation”.

For `O=C(Nc1ccccc1OCC1CCCCO1)C1CC2C=CC1C2` (stereo not shown) [compound 7, N-[2-(Tetrahydropyran-2-ylmethoxy)phenyl]bicyclo[2.2.1]hept-5-ene-2-carboxamide], the “potentiation of the Ca2+ increase elicited by UTP, multiple concentrations” value (FRT cells) was “dose-dependent potentiation”.

`C[C@H](CCC(=O)O)C[C@H](C)C[C@H](C)C(=O)/C=C(\O)[C@H](C)C[C@H](C)C/C=C/[C@@H](C)[C@@H](O)[C@@H](C)[C@@H](O)C[C@@H]1CC[C@@](C)([C@H]2CC[C@@](C)([C@@H](C)O)O2)O1` [ionomycin, reference compound] was tested, and the “activation of TMEM16A when Ca2+ directly increased (HS-YFP)” value (TMEM16A) was “large effect”.
